The values that follow are results of earlier work, collected in patent US20030060423A1, “Co-therapy for the treatment of dementia and associated behavioral manifestations comprising anticonvulsant derivatives and acetylcholinesterase inhibitors” (priority 2001, published 2003).

Data set [1] relates to behavioral and psychiatric symptoms of AD. The conditions noted are these: in vivo.
Data set [2] has as its system simple and complex partial seizures and secondarily generalized seizures. Conditions: clinical trials, adjunctive therapy or monotherapy.
In another data set the test system is focal ischemia. The conditions noted are these: used 2 hours after MCA embolization, rat.
The subject of the next data set is attention, cognition. The conditions noted are these: some individuals.
In the next data set the test system is kindled epilepsy. The conditions noted are these: animal model of kindled epilepsy.
Data set [3] relates to neuronal damage following global ischemia. The conditions noted are these: gerbils.
The next data set concerns seizures. The conditions noted are these: several rodent models of epilepsy.

The structures appear in SMILES notation.

For `COc1ccc2c3c1O[C@H]1C[C@@H](O)C=C[C@@]31CCN(C)C2` [galantamine, (4aS,6R,8aS)-4a,5,9,10,11,12-hexahydro-3-methoxy-11-methyl-6H-benzofuro[3a,3,2-ef][2]benzazepin-6-ol], in the data set on nicotinic receptors, the “modulation of nicotinic receptors” value was “allosteric modulation of nicotinic receptors”. In data set [1], the “benefit on behavioral and psychiatric symptoms of AD” value was “benefits on the behavioral and psychiatric symptoms of AD”.

Turning to `CC1(C)O[C@@H]2[C@@H](CO[C@@]3(COS(N)(=O)=O)OC(C)(C)O[C@@H]23)O1` [topiramate, 2,3:4,5-bis-O-(1-methylethylidene)-β-D-fructopyranose sulfamate], in data set [2], the “efficacy in treating simple and complex partial seizures and secondarily generalized seizures” value is “effective as adjunctive therapy or as monotherapy”. Besides, the neuroprotective effect entry with focal ischemia is “dose- and use-dependent neuroprotective effect”. The effect on attention entry in the data set with attention, cognition was “may impair attention”. The block of seizures result in the data set with kindled epilepsy and in the data set on seizures was “effectively block seizures” in each case. Besides, the “neuroprotective effect against neuronal damage” value in data set [3] was “neuroprotective effect”.
